{
  "source": "patent US20100330029A1",
  "about": "“Cancer Treatments with Radiation and Immunocytokines” (Merck Patent GmbH, priority 2008, published 2010)",
  "system": "CD8 cell infiltration in tumors",
  "assay": "immunohistochemical analysis of CD8 cell infiltration in LLC tumors",
  "format": "in vivo, mice",
  "settings": "Experiment LLC-6; combination compared to the monotherapies",
  "experimental": "In another experiment, LLC tumors were established subcutaneously in both the leg and flank of the same animal. Animals were then treated with either cisplatin (4 mg/kg, d0) plus fractionated radiation given to the leg tumor (3.6 Gy/d, d0-4), i.v. EMD521873 alone (5 mg/kg, d7, 8, 9), or the combination of EMD521873 plus chemoradiation (Experiment LLC-6). Tumor growth and immune response in both the irradiated leg tumor and the non-irradiated flank tumor were monitored. […] CD8 effector cells were increased by approximately 4-fold in the blood with the combination compared to either chemoradiation or EMD521873 alone.",
  "data": [
    {"substance": "dI-NHS76γ2(h)(FN>AQ)-ala-IL2(D20T) [EMD521873]", "values": [
      {"measurement": "CD8 cell infiltration enhanced, irradiated lesion", "result": 9, "unit": "fold"},
      {"measurement": "CD8 cell infiltration enhanced, non-irradiated lesion", "result": 3.5, "unit": "fold"}
    ]}
  ]
}
